In US20260373266A1, “PROTEIN DEGRADERS AND USES THEREOF” (KYMERA THERAPEUTICS, INC., priority 2022, published 2026):

biological target: T1, DCAF1 WD40 domain (residues 1077-1390) (Homo sapiens, UniProt Q9Y4B6); test: DCAF1 binding assay by SPR (Biacore 8K+), DCAF1-3 KD; details: 25 °C, read-out: DCAF1-3 SPR (KD)
T1 construct: DCAF1 WD40 domain (residues 1077-1390)
T1 sequence (Q9Y4B6 1077-1390): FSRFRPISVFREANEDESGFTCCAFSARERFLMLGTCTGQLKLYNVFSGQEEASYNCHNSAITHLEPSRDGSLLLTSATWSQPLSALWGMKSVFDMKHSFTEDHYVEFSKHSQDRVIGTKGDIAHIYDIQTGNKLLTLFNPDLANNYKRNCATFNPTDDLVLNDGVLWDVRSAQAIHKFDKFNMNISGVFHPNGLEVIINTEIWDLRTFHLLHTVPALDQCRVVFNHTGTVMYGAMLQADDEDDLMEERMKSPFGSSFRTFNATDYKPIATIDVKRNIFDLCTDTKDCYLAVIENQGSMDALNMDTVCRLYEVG

Row | SMILES | Kd
1 | Cc1ccc(-c2[nH]ncc2C(=O)N[C@@H](CC(N)=O)c2cccc(Cl)c2)c(F)c1 [I-506] | < 10 µM
2 | c1cc(N2CCOCC2)cc(N[C@@H]2CCCN(c3ccc(C4CC4)cc3)C2)n1 [I-507] | > 200 µM
3 | c1cc(N2CCOCC2)cc(N[C@@H]2CCCN(c3ccc4c(c3)CCC4)C2)n1 [I-508] | 100 to 200 µM
4 | Cc1ccc(N2CCC[C@@H](Nc3cc(N4CCOCC4)ccn3)C2)cc1 [I-509] | 10 to 100 µM
5 | Cc1cccc(N2CCC[C@@H](Nc3cc(N4CCOCC4)ccn3)C2)c1 [I-510] | 100 to 200 µM
6 | COCCc1ccc(-c2[nH]ncc2C(=O)N[C@@H](CC(N)=O)c2cccc(Cl)c2)c(F)c1 [I-511] | < 10 µM
7 | CO[C@@H]1C[C@@H](Nc2cc(N3CCOCC3)ccn2)CN(c2cccc(F)c2)C1 [I-512] | > 200 µM
8 | NC(=O)C[C@H](NC(=O)c1c[nH]nc1-c1cc(F)ccc1F)c1cccc(Cl)c1 [I-513] | < 10 µM
9 | Cc1cccc(-c2[nH]ncc2C(=O)N[C@@H](CC(N)=O)c2cccc(Cl)c2)c1F [I-515] | 10 to 100 µM
10 | Cc1c(N2CCOCC2)ccnc1N[C@@H]1CCCN(c2cccc(F)c2)C1 [I-516] | 10 to 100 µM
11 | C=CC(=O)N1C[C@H](c2ccc(Br)cc2)[C@@H]1C(=O)Nc1cccc2cccnc12 [I-517] | > 200 µM
12 | CCC(=O)N1C[C@H](c2ccc(Br)cc2)[C@@H]1C(=O)Nc1cccc2cccnc12 [I-518] | > 200 µM
13 | C=CC(=O)NC1CCN(c2ccnc(N[C@@H]3CCCN(c4cccc(F)c4)C3)c2)CC1 [I-519] | 10 to 100 µM
14 | C[n+]1ccc(N2CCOCC2)cc1N[C@@H]1C[C@@H](O)CN(c2cccc(F)c2)C1 [I-520] | > 200 µM
15 | NC(=O)Cc1ccc(F)c(-c2[nH]ncc2C(=O)N[C@@H](CC(N)=O)c2cccc(Cl)c2)c1 [I-521] | 10 to 100 µM
16 | NC(=O)CCc1ccc(F)c(-c2[nH]ncc2C(=O)N[C@@H](CC(N)=O)c2cccc(Cl)c2)c1 [I-522] | 10 to 100 µM
17 | NC(=O)C[C@H](NC(=O)c1c[nH]nc1-c1cc(C(=O)O)ccc1F)c1cccc(Cl)c1 [I-523] | 10 to 100 µM
18 | COCCC(=O)c1[nH]cc(C(=O)N[C@@H](CC(N)=O)c2cccc(Cl)c2)c1-c1ccccc1F [I-524] | < 10 µM
19 | CC(C)c1cccc(-c2[nH]ncc2C(=O)N[C@@H](CC(N)=O)c2cccc(Cl)c2)c1 [I-525] | 10 to 100 µM
20 | c1cc(C2CC2)cc(N2CCC[C@@H](Nc3cc(N4CCOCC4)ccn3)C2)c1 [I-526] | 10 to 100 µM
21 | Cc1ncc(N2CCOCC2)cc1N[C@@H]1CCCN(c2cccc(F)c2)C1 [I-527] | > 200 µM

Row | SMILES | Kd
22 | Fc1cccc(N2CCC[C@@H](Nc3cncc(N4CCCCC4)c3)C2)c1 [I-528] | > 200 µM
23 | NC(=O)C[C@@H](NC(=O)c1cn[nH]c1-c1ncccc1F)c1cccc(Cl)c1 [I-529] | 10 to 100 µM
24 | CS(=O)(=O)CCc1ccc(F)c(-c2[nH]ncc2C(=O)N[C@H](CC(N)=O)c2cccc(Cl)c2)c1 [I-531] | > 200 µM
25 | CS(=O)(=O)Cc1ccc(F)c(-c2[nH]ncc2C(=O)N[C@H](CC(N)=O)c2cccc(Cl)c2)c1 [I-532] | > 200 µM
26 | O=c1[nH]cc(N2CCOCC2)cc1N[C@@H]1CCCN(c2cccc(F)c2)C1 [I-533] | < 10 µM
27 | c1cc(N2CCOCC2)cc(N[C@@H]2CCCN(c3cnn[nH]3)C2)n1 [I-534] | > 200 µM
28 | C=CC(=O)N1CCC(c2[nH]ncc2C(=O)N[C@H](CC(N)=O)c2cccc(Cl)c2)CC1 [I-535] | 100 to 200 µM
29 | C=CC(=O)Nc1ccc(-c2[nH]ncc2C(=O)N[C@H](CC(N)=O)c2cccc(Cl)c2)cc1 [I-536] | > 200 µM
30 | C=CC(=O)NC1CCC(c2[nH]ncc2C(=O)N[C@H](CC(N)=O)c2cccc(Cl)c2)CC1 (stereo partly drawn) [I-537] | 10 to 100 µM
31 | Nc1cc(N[C@@H]2CCCN(c3cccc(F)c3)C2)cc(N2CCOCC2)c1 [I-538] | < 10 µM
32 | C[S+]([O-])CN(c1cc(N2CCCOC2)ccn1)[C@H]1CCCN(c2cccc(F)c2)C1 (stereo partly drawn) [I-539] | 10 to 100 µM
33 | Fc1cccc(N2CCC[C@H]3[C@@H]2CCN3c2cc(N3CCOCC3)ccn2)c1 [I-540] | > 200 µM
34 | Fc1cccc(N2C[C@@H](F)C[C@@H](Nc3cc(N4CCOCC4)ccn3)C2)c1 [I-541] | 100 to 200 µM
35 | C=CC(=O)N1CCCC(c2[nH]ncc2C(=O)N[C@@H](CC(N)=O)c2cccc(Cl)c2)C1 (stereo partly drawn) [I-542] | 100 to 200 µM
36 | NC(=O)C[C@H](NC(=O)c1cn[nH]c1Cc1ccccc1)c1cccc(Cl)c1 [I-543] | < 10 µM
37 | COc1c(N[C@@H]2CCCN(c3cccc(F)c3)C2)cncc1N1CCOCC1 [I-544] | 100 to 200 µM
38 | Cc1ncc(N[C@@H]2CCCN(c3cccc(F)c3)C2)cc1N1CCOCC1 [I-545] | > 200 µM
39 | Nc1ncc(N[C@@H]2CCCN(c3cccc(F)c3)C2)cc1N1CCOCC1 [I-546] | < 10 µM
40 | COc1cc(N[C@@H]2CCCN(c3cccc(F)c3)C2)cc(N2CCOCC2)c1 [I-547] | > 200 µM
41 | NC(=O)C[C@H](NC(=O)c1[nH][nH]c(=O)c1-c1ccccc1F)c1cccc(Cl)c1 [I-548] | > 200 µM
42 | Cc1cc(F)c(-c2[nH]ncc2C(=O)N[C@@H](CC(N)=O)c2cccc(Cl)c2)c(F)c1 [I-549] | < 10 µM

Row | SMILES | Kd
43 | NC(=O)C[C@H](NC(=O)C1=C(c2c(F)cccc2F)CCNC1)c1cccc(Cl)c1 [I-550] | 100 to 200 µM
44 | COc1ccc(N2CCC[C@@H](Nc3cncc(N4CCOCC4)c3)C2)cc1 [I-551] | > 200 µM
45 | C[C@@H]1CCCN(c2ccnc(N[C@@H]3CCCN(c4cccc(F)c4)C3)c2)C1 [I-552] | 10 to 100 µM
46 | Fc1cccc(N2CCC[C@@H](Nc3cc(N4CC5CCC(C5)C4)ccn3)C2)c1 [I-553] | < 10 µM
47 | Fc1cccc(N2CCC[C@@H](Nc3cc(N4Cc5ccccc5C4)ccn3)C2)c1 [I-554] | 10 to 100 µM
48 | CN(c1ccnc(N[C@@H]2CCCN(c3cccc(F)c3)C2)c1)C1CCCC1 [I-555] | 10 to 100 µM
49 | COCCOCC(=O)c1[nH]cc(C(=O)N[C@@H](CC(N)=O)c2cccc(Cl)c2)c1-c1ccccc1F [I-556] | < 10 µM
50 | COCCOCCc1[nH]cc(C(=O)N[C@@H](CC(N)=O)c2cccc(Cl)c2)c1-c1ccccc1F [I-557] | < 10 µM
51 | COc1ncc(N[C@@H]2CCCN(c3cccc(F)c3)C2)cc1N1CCOCC1 [I-558] | < 10 µM
52 | O=C1C[C@H]([C@@H](NC(=O)c2cn[nH]c2-c2ccccc2F)c2cccc(Cl)c2)CN1 [I-559] | 100 to 200 µM
53 | O=C1C[C@@H]([C@@H](NC(=O)c2cn[nH]c2-c2ccccc2F)c2cccc(Cl)c2)CN1 [I-560] | > 200 µM
54 | O=C1CC(C(NC(=O)c2cn[nH]c2-c2ccccc2F)c2cccc(Cl)c2)CN1 (stereo not drawn) [I-561] | > 200 µM
55 | NC(=O)CC1(NC(=O)c2cn[nH]c2-c2ccccc2F)CCCc2c(Cl)cccc21 (stereo not drawn) [I-562] | > 200 µM
56 | CC(C)c1cccc(-c2[nH]ncc2C(=O)N[C@@H](CC(N)=O)c2cccc(Cl)c2)c1F [I-563] | 10 to 100 µM
57 | Oc1cc(N[C@@H]2CCCN(c3cccc(F)c3)C2)cc(N2CCOCC2)c1 [I-564] | 10 to 100 µM
58 | NC(=O)C[C@H](NC(=O)c1nc(N)sc1-c1ccccc1F)c1cccc(Cl)c1 [I-565] | 100 to 200 µM
59 | NC(=O)C[C@H](NC(=O)c1c[nH]c(Cc2ccccc2)c1-c1c(F)cccc1F)c1cccc(Cl)c1 [I-566] | < 10 µM
60 | Oc1ccc(N2CCC[C@@H](Nc3cncc(N4CCOCC4)c3)C2)cc1 [I-567] | 10 to 100 µM
61 | C[C@@H]1CCCCN1c1ccnc(N[C@@H]2CCCN(c3cccc(F)c3)C2)c1 [I-568] | < 10 µM
62 | C[C@H]1CCCCN1c1ccnc(N[C@@H]2CCCN(c3cccc(F)c3)C2)c1 [I-569] | < 10 µM
63 | C[C@H]1CCCN(c2ccnc(N[C@@H]3CCCN(c4cccc(F)c4)C3)c2)C1 [I-570] | 10 to 100 µM
